Consider six compounds from patent US20230109801A1 (Blue Oak Pharmaceuticals, Inc., priority 2020, published 2023).

A word on the minimal effective dose: it is the smallest amount tested that counted as effective.

The subject of the test is mice. Put plainly: SmartCube in vivo neuropharmacological behavioral assay. Conditions: for minimal effective dose: Mus musculus, ip, dose having 50% or more total activity in SmartCube, i.p., read-out: MED (minimal effective dose); for AD: antidepressant, percent probability / AG: analgesic, percent probability / AP: antipsychotic, percent probability / AX: anxiolytic, percent probability / CE: cognitive enhancer, percent probability / HA: hallucinogenic, percent probability / MS: mood stabilizer, percent probability / PS, percent probability / SD: sedative hypnotic, percent probability / SE: side effects, percent probability / UN: uncharacterized CNS activity, percent probability / XG: anxiogenic, percent probability: SmartCube, i.p. 15 min before test, at the MED. The procedure, abridged:
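Mice dosed i.p. with compound in Pharmasolve (NMP) 15 min before automated video capture of behavior; doses e.g. 0.3–30 mg/kg. Behavioral signature compared with reference-drug classes, giving per-class probability (0–100, 0 = LOQ); MED = lowest dose with ≥50% total activity.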

Molecules are shown by their SMILES. Counter-ions that a name gives are not always drawn.

For the compound `CC1=CC2NC1c1ccccc12` (stereo not drawn) [Compound 61, 9-Methyl-11-azatricyclo[6.2.1.0^2,7]undeca-2,4,6,9-tetraene hydrochloride], the minimal effective dose was > 30 mg/kg; the “AD: antidepressant, percent probability” value is recorded as “++ (5% ≤ X < 25%)”; the “AG: analgesic, percent probability” value is listed as “++ (5% ≤ X < 25%)”; the “AP: antipsychotic, percent probability” value is given as “+ (LOQ ≤ X < 5%)”. Further, the “AX: anxiolytic, percent probability” value is on record as “+ (LOQ ≤ X < 5%)”; the “CE: cognitive enhancer, percent probability” value was “+ (LOQ ≤ X < 5%)”; the “HA: hallucinogenic, percent probability” value was “+ (LOQ ≤ X < 5%)”; the “MS: mood stabilizer, percent probability” value was “+ (LOQ ≤ X < 5%)”. Also, the “PS, percent probability” value is given as “+ (LOQ ≤ X < 5%)”; the “SD: sedative hypnotic, percent probability” value (shortened to “SD … percent probability”) was “+ (LOQ ≤ X < 5%)”; the “SE: side effects, percent probability” value is “+ (LOQ ≤ X < 5%)”; the “UN: uncharacterized CNS activity, percent probability” value (“UN … percent probability” for short) is given as “+ (LOQ ≤ X < 5%)”. Further, the “XG: anxiogenic, percent probability” value is recorded as “+ (LOQ ≤ X < 5%)”.

As for `CC[C@@H](C)N1C2CCC1c1ccccc12` [Compound 33, 11-[(2R)-Butan-2-yl]-11-azatricyclo[6.2.1.0^2,7]undeca-2,4,6-triene hydrochloride], the minimal effective dose lay in the range of 1 to 10 mg/kg; the “AD: antidepressant, percent probability” value was “+ (LOQ ≤ X < 5%)”; the “AG: analgesic, percent probability” value is given as “+ (LOQ ≤ X < 5%)”; the “AP: antipsychotic, percent probability” value is on record as “+ (LOQ ≤ X < 5%)”. Besides, the “AX: anxiolytic, percent probability” value was “++ (5% ≤ X < 25%)”; the “CE: cognitive enhancer, percent probability” value was “+ (LOQ ≤ X < 5%)”; the “HA: hallucinogenic, percent probability” value is “+ (LOQ ≤ X < 5%)”; the “MS: mood stabilizer, percent probability” value is on record as “+ (LOQ ≤ X < 5%)”. The “PS, percent probability” value is “++ (5% ≤ X < 25%)”; the “SD … percent probability” value is “+ (LOQ ≤ X < 5%)”; the “SE: side effects, percent probability” value is given as “+ (LOQ ≤ X < 5%)”; the “UN … percent probability” value was “++++ (50% ≤ X <1 00%)”. For the same compound, the “XG: anxiogenic, percent probability” value is reported as “+ (LOQ ≤ X < 5%)”.

With `C1=CC2c3ccccc3C1N2C1CC1` [Compound 56, 11-Cyclopropyl-11-azatricyclo[6.2.1.0^2,7]undeca-2,4,6,9-tetraene hydrochloride], the minimal effective dose is 10 to 30 mg/kg; the “AD: antidepressant, percent probability” value is on record as “++ (5% ≤ X < 25%)”; the “AG: analgesic, percent probability” value is “+ (LOQ ≤ X < 5%)”; the “AP: antipsychotic, percent probability” value was “++ (5% ≤ X < 25%)”. Further, the “AX: anxiolytic, percent probability” value is listed as “++ (5% ≤ X < 25%)”; the “CE: cognitive enhancer, percent probability” value is “++ (5% ≤ X < 25%)”; the “HA: hallucinogenic, percent probability” value is on record as “+ (LOQ ≤ X < 5%)”; the “MS: mood stabilizer, percent probability” value is given as “+ (LOQ ≤ X < 5%)”. Moreover, the “PS, percent probability” value is given as “+ (LOQ ≤ X < 5%)”; the “SD … percent probability” value is recorded as “+ (LOQ ≤ X < 5%)”; the “SE: side effects, percent probability” value is “+ (LOQ ≤ X < 5%)”; the “UN … percent probability” value is “+++ (25% ≤ X < 50%)”. The “XG: anxiogenic, percent probability” value was “+ (LOQ ≤ X < 5%)”.

Regarding `Clc1cccc2c1C1CCC2N1` (stereo not drawn) [Compound 13, 3-Chloro-11-azatricyclo[6.2.1.0^2,7]undeca-2,4,6-triene hydrochloride], the minimal effective dose is > 30 mg/kg; the “AD: antidepressant, percent probability” value is listed as “+ (LOQ ≤ X < 5%)”; the “AG: analgesic, percent probability” value is listed as “+ (LOQ ≤ X < 5%)”; the “AP: antipsychotic, percent probability” value is reported as “+ (LOQ ≤ X < 5%)”. In addition, the “AX: anxiolytic, percent probability” value is “++ (5% ≤ X < 25%)”; the “CE: cognitive enhancer, percent probability” value is reported as “++ (5% ≤ X < 25%)”; the “HA: hallucinogenic, percent probability” value is recorded as “+ (LOQ ≤ X < 5%)”; the “MS: mood stabilizer, percent probability” value is given as “+ (LOQ ≤ X < 5%)”. The “PS, percent probability” value was “+ (LOQ ≤ X < 5%)”; the “SD … percent probability” value is reported as “+ (LOQ ≤ X < 5%)”; the “SE: side effects, percent probability” value is listed as “+ (LOQ ≤ X < 5%)”; the “UN … percent probability” value was “+++ (25% ≤ X < 50%)”. Besides, the “XG: anxiogenic, percent probability” value is “+ (LOQ ≤ X < 5%)”.

Take `CC(C)N1C2CCC1c1ccccc12` [Compound 42, 11-(Propan-2-yl)-11-azatricyclo[6.2.1.0^2,7]undeca-2,4,6-triene hydrochloride]: the minimal effective dose fell in the range of 10 to 30 mg/kg; the “AD: antidepressant, percent probability” value was “++ (5% ≤ X < 25%)”; the “AG: analgesic, percent probability” value is listed as “++ (5% ≤ X < 25%)”; the “AP: antipsychotic, percent probability” value was “+ (LOQ ≤ X < 5%)”. Also, the “AX: anxiolytic, percent probability” value is on record as “+ (LOQ ≤ X < 5%)”; the “CE: cognitive enhancer, percent probability” value is on record as “+ (LOQ ≤ X < 5%)”; the “HA: hallucinogenic, percent probability” value is “++ (5% ≤ X < 25%)”; the “MS: mood stabilizer, percent probability” value is “+ (LOQ ≤ X < 5%)”. In addition, the “PS, percent probability” value was “+++ (25% ≤ X < 50%)”; the “SD … percent probability” value is “+ (LOQ ≤ X < 5%)”; the “SE: side effects, percent probability” value is recorded as “+ (LOQ ≤ X < 5%)”; the “UN … percent probability” value is on record as “++ (5% ≤ X < 25%)”. For the same compound, the “XG: anxiogenic, percent probability” value was “+ (LOQ ≤ X < 5%)”.

For the compound `C1=CC2c3ccccc3C1N2C1CCCC1` [Compound 54, 11-Cyclopentyl-11-azatricyclo[6.2.1.0^2,7]undeca-2,4,6,9-tetraene hydrochloride], the minimal effective dose was 10 to 30 mg/kg; the “AD: antidepressant, percent probability” value is on record as “++++ (50% ≤ X <1 00%)”; the “AG: analgesic, percent probability” value is “++ (5% ≤ X < 25%)”; the “AP: antipsychotic, percent probability” value is on record as “+ (LOQ ≤ X < 5%)”. For the same compound, the “AX: anxiolytic, percent probability” value is listed as “++ (5% ≤ X < 25%)”; the “CE: cognitive enhancer, percent probability” value is reported as “+ (LOQ ≤ X < 5%)”; the “HA: hallucinogenic, percent probability” value is on record as “+ (LOQ ≤ X < 5%)”; the “MS: mood stabilizer, percent probability” value is on record as “+ (LOQ ≤ X < 5%)”. Also, the “PS, percent probability” value was “++ (5% ≤ X < 25%)”; the “SD … percent probability” value was “+ (LOQ ≤ X < 5%)”; the “SE: side effects, percent probability” value was “+ (LOQ ≤ X < 5%)”; the “UN … percent probability” value is recorded as “++ (5% ≤ X < 25%)”. Moreover, the “XG: anxiogenic, percent probability” value was “+ (LOQ ≤ X < 5%)”.
